The record followed here is paper PMC1084334 (PLoS Biology, 2005).

A word on the Km: it is the substrate concentration at which the rate is half of its maximum.

Read-outs that look alike come from different tables or passages of the source.

In data set [1] the target is T1, SynGUN4 (Synechocystis sp. PCC 6803, UniProt P72583, L222A).
T1 construct: gene sll0558; full length, residues 1-233; E. coli BL21(DE3)
Description: tryptophan fluorescence quenching. It is filed as binding. Particulars: read-out: dissociation constant. From the text:
(§1) tryptophan fluorescence quenching on SynGUN4

Data set [2] has as its target T2, SynGUN4 (Synechocystis sp. PCC 6803, UniProt P72583, R113A).
T2 construct: gene sll0558; full length, residues 1-233; E. coli BL21(DE3)
Description: tryptophan fluorescence quenching. Particulars: read-out: dissociation constant. The format is binding.
From the text: as §1

The target in data set [3] is T3, SynGUN4 (Synechocystis sp. PCC 6803, UniProt P72583, R214A).
T3 construct: gene sll0558; full length, residues 1-233; E. coli BL21(DE3)
T3 sequence (P72583 whole entry R214A, the tested form may be a part): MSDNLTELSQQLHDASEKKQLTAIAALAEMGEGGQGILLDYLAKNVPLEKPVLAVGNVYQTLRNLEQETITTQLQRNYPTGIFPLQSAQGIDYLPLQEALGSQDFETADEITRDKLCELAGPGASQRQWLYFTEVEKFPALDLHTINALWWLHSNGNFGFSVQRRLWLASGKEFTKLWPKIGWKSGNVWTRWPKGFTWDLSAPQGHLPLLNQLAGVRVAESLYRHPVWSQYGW
As to the kind of experiment: tryptophan fluorescence quenching. It is filed as binding. The following applies: read-out: dissociation constant.
From the text: as §1

Data set [4] deals with T4, SynGUN4 (Synechocystis sp. PCC 6803, UniProt P72583, A219G).
T4 construct: gene sll0558; full length, residues 1-233; E. coli BL21(DE3)
T4 sequence (P72583 whole entry A219G, the tested form may be a part): as the sequence (P72583 whole entry R214A, the tested form may be a part) above, with A214R, A219G counted along it
Description: tryptophan fluorescence quenching. Particulars: read-out: dissociation constant. The format is binding.
From the text: as §1

The target of data set [5] is T5, SynGUN4 (Synechocystis sp. PCC 6803, UniProt P72583).
T5 construct: gene sll0558; full length, residues 1-233; E. coli BL21(DE3)
T5 sequence (P72583 whole entry, the tested form may be a part): as the sequence (P72583 whole entry R214A, the tested form may be a part) above, with A214R counted along it
As to the kind of experiment: tryptophan fluorescence quenching. It is filed as binding.

Substrate in data set [6]: CC1=C(CCC(=O)O)c2cc3nc(cc4[nH]c(cc4C)cc4[nH]c(cc1n2)cc4C)C(C)=C3CCC(=O)O
As to the kind of experiment: Mg-Deutero formation by fluorescence. The following applies: no SynGUN4, 200 nM ChlH (methods: 0.1 μM ChlH), 20 mM MgCl2, 5 mM ATP, 50 mM MOPS-KOH pH 7.7, 1 mM DTT, 34 °C. The format is biochemical, Synechocystis sp. PCC 6803.

T2 sequence (P72583 whole entry R113A, the tested form may be a part): as the sequence (P72583 whole entry R214A, the tested form may be a part) above, with R113A, A214R counted along it
T1 sequence (P72583 whole entry L222A, the tested form may be a part): as the sequence (P72583 whole entry R214A, the tested form may be a part) above, with A214R, L222A counted along it

`CC1=C(CCC(=O)O)c2cc3nc(cc4[nH]c(cc4C)cc4[nH]c(cc1n2)cc4C)C(C)=C3CCC(=O)O` [Deutero]: the Kd came to 6.61 ± 1.02 µM at SynGUN4 [1]; 7.83 ± 1.99 µM at SynGUN4 [2]; 10.9 ± 4.06 µM at SynGUN4 [3]; 1.56 ± 0.459 µM on SynGUN4 [4]; 0.865 ± 0.146 µM at SynGUN4 [5].

For `C=CC1=C(C)C2=NC1=Cc1c(C)c(C=C)c3[n]1[Co+][n]1c(c(C)c(CCC(=O)O)c1=CC1=NC(=C3)C(C)=C1CCC(=O)O)=C2` [Co-Proto], the Kd on SynGUN4 [5] (50 mM MOPS-KOH pH 7.7, 150 mM NaCl, 1 mM DTT, one-site fit) came to 2.67 ± 0.856 µM.

B1: Synechocystis Mg-chelatase (ChlH, ChlD, ChlI) (Synechocystis sp. PCC 6803 substr. Kazusa) (protein)
chain: MFTNVKSTIRRVDPEALNGRQLLKVVYVVLESQYQSALSAAVRNINRTNSSLAIQLTGYLIEELRDPENYANFKHDVSEANLFIASLIFIEDLADKVVEAVTPYRDNLDAAIVFPSMPQVMRLNKMGSFSMAQLGQSKSAIAQFMKKRKENSSGAGFQDAMLKLLRTLPTVLKYLPVEKAQDARNFMLSFQYWLGGSQENLENFLLMLTDKYVYPDLGLDKLVNYQEPVVYPDMGIWHPLSMQMFENVKDYLEWYNQRPDISEDLKDPLAPCIGLIMQRTHLVTGDDAHYVGMVQELEAMGARVICVFSGGLDFSKPVNEYFWDKSVNGVEPLPIVDAVVSLTGFALVGGPARQDHPRAIESLKKLNRPYMCALPLVFQTTEEWEASDLGLHPIQVALQIAIPELDGAIEPIILSGRDGSTGRAIALQDRLEAIAQRAMKWANLRKKPKLDKKVAITVFSFPPDKGNVGTAAYLDVFGSIYEVMKGLQGNGYDVQDLPGSAKELMEAVIHDAQAQYNSPELNIAHRMSVEQYERLTPYSVRLEENWGKPPGHLNSDGQNLLIYGKEFGNVFIGVQPTFGYEGDPMRLLFSRSASPHHGFAAYYTYLNHIWKADAVLHFGTHGSLEFMPGKQMGMSGECYPDNLIGTIPNLYYYAANNPSEATIAKRRGYASTISYLTPPAENAGLYKGLQELNELIGSYQTLKDSGRGIQIVNTIMDQARICNLDQDVNLPDINAEEMDQGQRDTIVGSVYRKLMEIESRLLPCGLHVIGQPPSAEEAIATLVNIASLDREDEGIWALPTLIAESIGRNMEEIYRNSDKGILADVELLQDITLATRAAVAALVQEQINADGRVSFVSKLNFFKIGKKAPWVKSLCDSGYPNVNEEKLKPLFEYLEFCLEQVCADNEFGGLLQALEGEYVLPGPGGDPIRNPNVLPTGKNIHALDPQSIPTLAAVQSAKVVVDRLLERQRAENGGNYPETIASVLWGTDNIKTYGESLAQIMWMVGAKPVPDALGRVNKIELVPLEELGRPRIDVVVNCSGVFRDLFINQMNLLDQAVKLAAEADEPLEMNFVRKHALEQAEEMGIGVREAATRIFSNASGSYSSNVNLAVENSSWEDESELQEMYLKRKSFAFNSDNPGMMDQNRDMFERALKTADATFQNLDSSEISLTDVSHYFDSDPTKLISTLRDDGKAPAAYIADTTTANAQVRTLSETVRLDARTKLLNPKWYEGMLSHGYEGVRELSKRLVNTMGWSATAGAVDNWVYEDANSTFIKDEEMCKRLMDLNPNSFRRMVSTLLEVNGRGYWETSDENLERLQELYQEVEDRIEGVE
notes: with Magnesium-chelatase subunit ChlD; Magnesium-chelatase subunit ChlI
For the molecule B1, in data set [6], the Km stood at 7.46 ± 3.24 µM.
